Measured values as given in US5332726A, “Antithrombotic peptides and pseudopeptides” (Rhone-Poulenc Rorer Pharmaceuticals Inc., priority 1992, dated 1994).
Non-standard residues stand in square brackets, D forms with d. Residues, ends and D or L forms follow the SMILES beside them. NMeV = CN[C@H](C(=O)O)C(C)C; Orn = NCCC[C@H](N)C(=O)O; Aoc = NCCCCCCCC(=O)O; Sar = CNCC(=O)O

Key:
[1] = molecular target: thrombin-stimulated platelets (Homo sapiens, UniProt P05106+P08514); test: Fibrinogen-Binding Assay (125I-fibrinogen binding to platelets); conditions: for IC50: 125I-fibrinogen 0.176 μmol/liter, thrombin-stimulated platelets, read-out: Inhibition of 125I-Fibrinogen Binding to Platelets IC50; for inhibition at 50 µg/mL: read-out: Inhibition of 125I-Fibrinogen Binding to Platelets: Inhibited <50% at 50 μg/ml
Method: Platelets are washed free of plasma constituents by the albumin density-gradient technique of Walsh, P. N., et al., Br. J. Haematol. […] After these additions, the final platelet count in the mixture is 1×10^11 /liter. After incubation for an additional 30 minutes at 22°-25° C., bound and free ligand are separated by centrifuging 50 μl of the mixture through 300 μl of 20% sucrose at 12,000×g for 4 minutes. The platelet pellet is then separated from the rest of the mixture to determine platelet-bound radioactivity. Nonspecific binding is measured in mixtures containing an excess of unlabeled ligand. […] The IC50 is derived by plotting residual fibrinogen binding against the logarithm of the sample compound's concentration.

[2] = molecular target: fixed activated platelets (Homo sapiens, UniProt P05106+P08514); test: Platelet Aggregation Assay (fibrinogen-mediated aggregation of fixed-activated platelets); assay type: cell-based; conditions: for IC50: fixed activated platelets, human fibrinogen 250 μg/ml, read-out: Inhibition of Fibrinogen Mediated Platelet Aggregation IC50; for inhibition at 25 µM: read-out: Inhibition of Fibrinogen Mediated Platelet Aggregation % inhibition at 25 μM; for inhibition at 100 µM: read-out: Inhibition of Fibrinogen Mediated Platelet Aggregation % inhibition at 100 μM
Method: PLATELET AGGREGATION ASSAY
Preparation of Fixed-Activated Platelets
To the activated platelets is added paraformaldehyde to a final concentration of 0.50% and this incubated at room temperature for 30 minutes. The fixed activated platelets are then collected by centrifugation at 650×g for 15 minutes.
Platelet Aggregation Assay
The fixed activated platelets are incubated with a selected dose of the compound to be tested for platelet aggregation inhibition for one minute and aggregation initiated by addition of human fibrinogen to a final concentration of 250 μg/ml. A platelet aggregation profiler Model PAP-4 is used to record the platelet aggregation.

fixed activated platelets, sequence (P08514 32-1039): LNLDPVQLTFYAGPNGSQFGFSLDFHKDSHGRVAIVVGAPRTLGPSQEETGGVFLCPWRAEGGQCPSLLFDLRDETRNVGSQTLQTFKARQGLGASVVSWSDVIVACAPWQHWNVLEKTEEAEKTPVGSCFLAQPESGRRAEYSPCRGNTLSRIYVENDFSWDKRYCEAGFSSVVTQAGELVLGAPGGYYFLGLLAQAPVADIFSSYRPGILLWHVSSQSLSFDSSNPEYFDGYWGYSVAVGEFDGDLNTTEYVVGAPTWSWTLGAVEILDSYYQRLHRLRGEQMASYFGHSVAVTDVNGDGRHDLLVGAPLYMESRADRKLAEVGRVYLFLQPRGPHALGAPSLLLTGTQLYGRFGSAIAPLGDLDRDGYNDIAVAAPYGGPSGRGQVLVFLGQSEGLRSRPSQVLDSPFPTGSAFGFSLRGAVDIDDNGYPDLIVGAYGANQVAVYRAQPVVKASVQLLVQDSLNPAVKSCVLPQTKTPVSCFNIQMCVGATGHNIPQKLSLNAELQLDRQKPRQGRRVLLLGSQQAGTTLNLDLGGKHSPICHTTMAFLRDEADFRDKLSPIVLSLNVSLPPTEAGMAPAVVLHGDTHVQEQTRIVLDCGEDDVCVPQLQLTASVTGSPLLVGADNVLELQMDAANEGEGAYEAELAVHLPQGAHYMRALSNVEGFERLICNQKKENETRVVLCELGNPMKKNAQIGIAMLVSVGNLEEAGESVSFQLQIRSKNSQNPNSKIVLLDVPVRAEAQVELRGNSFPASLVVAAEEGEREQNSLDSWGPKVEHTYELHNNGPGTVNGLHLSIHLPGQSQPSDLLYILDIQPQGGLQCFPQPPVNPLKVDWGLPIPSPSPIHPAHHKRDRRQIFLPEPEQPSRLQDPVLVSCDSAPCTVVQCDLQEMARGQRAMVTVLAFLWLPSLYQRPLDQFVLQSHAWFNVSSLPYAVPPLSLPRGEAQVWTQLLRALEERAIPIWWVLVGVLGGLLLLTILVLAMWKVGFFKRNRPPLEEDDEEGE
fixed activated platelets, sequence (P05106 27-788): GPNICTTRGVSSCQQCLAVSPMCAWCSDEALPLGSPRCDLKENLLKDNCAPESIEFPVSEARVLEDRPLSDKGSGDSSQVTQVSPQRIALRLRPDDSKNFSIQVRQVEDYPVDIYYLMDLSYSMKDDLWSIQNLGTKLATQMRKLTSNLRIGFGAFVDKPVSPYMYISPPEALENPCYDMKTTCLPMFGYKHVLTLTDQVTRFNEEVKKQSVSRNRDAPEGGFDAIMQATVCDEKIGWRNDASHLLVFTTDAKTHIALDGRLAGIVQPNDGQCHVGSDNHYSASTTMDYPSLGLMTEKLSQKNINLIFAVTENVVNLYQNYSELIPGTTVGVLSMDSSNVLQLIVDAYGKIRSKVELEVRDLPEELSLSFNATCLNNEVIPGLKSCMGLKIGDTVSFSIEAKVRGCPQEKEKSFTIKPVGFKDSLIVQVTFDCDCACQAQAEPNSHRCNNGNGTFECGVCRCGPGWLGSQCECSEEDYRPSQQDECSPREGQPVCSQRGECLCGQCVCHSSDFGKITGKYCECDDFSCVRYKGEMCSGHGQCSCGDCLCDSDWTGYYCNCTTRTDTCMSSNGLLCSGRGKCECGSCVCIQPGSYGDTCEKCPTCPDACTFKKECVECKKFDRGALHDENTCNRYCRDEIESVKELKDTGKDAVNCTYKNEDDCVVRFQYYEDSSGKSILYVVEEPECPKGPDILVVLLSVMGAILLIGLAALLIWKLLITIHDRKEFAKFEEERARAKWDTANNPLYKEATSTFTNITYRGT
thrombin-stimulated platelets, sequence (P08514 32-1039): as the sequence (P08514 32-1039) above
thrombin-stimulated platelets, sequence (P05106 27-788): as the sequence (P05106 27-788) above

`CC(C)[C@H](NC(=O)[C@H](CC(=O)O)NC(=O)CCCCCCn1ccnc1)C(=O)O` [7-(Imidazol-1-yl)heptanoyl-L-aspartyl-L-valine] was tested, and the IC50 [1] was 2 µM, the IC50 [2] was > 25 µM and the inhibition at 25 µM [2] was 35%.

`CC(C)[C@H](NC(=O)[C@H](CC(=O)O)NC(=O)CNC(=O)CCCCCCNC(=N)N)C(=O)O` [7-Guanidinoheptanoyl-glycyl-L-aspartyl-L-valine] gave an IC50 [1] of 6.4 µM, an IC50 [2] of 21 µM and an inhibition at 25 µM [2] of 56%.

Work on `COC(=O)[C@](CCCNC(=N)N)(Cc1ccccc1)NC(=O)[C@H](CC(=O)O)NC(=O)CCCCCCCCNC(=N)N` [9-Guanidinononanoyl-L-aspartyl-(S)-α-benzyl arginine methyl ester] yielded an IC50 [1] of 20 µM, an IC50 [2] of 13.3 µM and an inhibition at 25 µM [2] of 69%.

Work on `CC[C@@H](C)[C@@H](NC(=O)[C@H](CC(=O)O)NC(=O)CCCCCCCCNC(=N)N)C(=O)N[C@@H](CCCNC(=N)N)C(=O)O` [9-Guanidinononanoyl-L-aspartyl-D-isoleucyl-L-arginine] yielded an IC50 [1] of 10.2 µM, an IC50 [2] of 13.1 µM and an inhibition at 25 µM [2] of 75%.

`CC(C)[C@H](NC(=O)[C@H](CC(=O)O)NC(=O)CCCCCCCNC(=N)N)C(=O)O` [8-Guanidinooctanoyl-L-aspartyl-L-valine] gave an IC50 [1] of 2.8 µM, an IC50 [2] of 2.7 µM and an inhibition at 25 µM [2] of 89%.

For `CC(C)[C@H](NC(=O)[C@H](CC(=O)O)NC(=O)CNC(=O)CCCNC(=N)N)C(=O)O` [4-Guanidinobutanoyl-glycyl-L-aspartyl-L-valine], the IC50 [1] was 10 µM, the IC50 [2] was 21.9 µM and the inhibition at 25 µM [2] was 43%.

Work on `CC(C)[C@H](NC(=O)[C@H](CC(=O)O)NC(=O)CN(C)C(=O)CCCCCNC(=N)N)C(=O)O` [6-Guanidinohexanoyl-L-sarcosyl-L-aspartyl-L-valine] yielded an IC50 [1] of 0.32 µM, an IC50 [2] of 0.63 µM and an inhibition at 25 µM [2] of 97%.

With `CN(CC(=O)N[C@@H](CC(=O)O)C(=O)N[C@@H](Cc1ccc(O)cc1)C(=O)O)C(=O)CCCCCNC(=N)N` [6-Guanidinohexanoyl-sarcosyl-L-aspartyl-L-tyrosine] the IC50 [1] was 3.6 µM, the IC50 [2] was 7.3 µM and the inhibition at 25 µM [2] was 94%.

Work on `N=C(N)NCCCCCCCC(=O)N[C@@H](CC(=O)O)C(=O)N[C@@H](CCCCN)C(=O)O` [8-Guanidinooctanoyl-L-aspartyl-L-lysine] yielded an IC50 [1] of 0.78 µM, an IC50 [2] of 1.6 µM and an inhibition at 25 µM [2] of 93%.

With `CC(C)[C@H](NC(=O)[C@H](CC(=O)O)NC(=O)CNC(=O)[C@@H](N)CCCN)C(=O)O` [L-ornithylglycyl-L-aspartyl-L-valine] (H-[Orn]GDV-OH) the inhibition at 50 µg/mL [1] was < 50%, the IC50 [2] was 15 µM and the inhibition at 100 µM [2] was 80%.

Work on `CC(C)C[C@H](NC(=O)[C@H](CC(=O)O)NC(=O)CCCCCCCCNC(=N)N)C(=O)O` [9-guanidinononanoyl-L-aspartyl-L-leucine] yielded an IC50 [1] of 0.4 µM, an IC50 [2] of 0.59 µM and an inhibition at 25 µM [2] of 95%.

`N=C(N)NCCCCCCCCC(=O)N[C@@H](CC(=O)O)C(=O)N[C@@H](CCCNC(=N)N)C(=O)N[C@@H](CCCNC(=N)N)C(=O)O` [9-Guanidinononanoyl-L-aspartyl-L-arginyl-L-arginine] was tested, and the IC50 [1] was 15 µM, the IC50 [2] was 15 µM and the inhibition at 25 µM [2] was 68%.

`CC(C)[C@H](NC(=O)[C@H](CC(=O)O)NC(=O)CCCCCCCCNC(=N)N)C(=O)O` [9-guanidinononanoyl-L-aspartyl-L-valine] was tested, and the IC50 [1] was 0.2 µM, the IC50 [2] was 1.7 µM and the inhibition at 25 µM [2] was 96%.

`CC(C)[C@H](NC(=O)[C@H](CC(=O)O)NC(=O)C=CCCCCCNC(=N)N)C(=O)O` [8-Guanidinooct-2-enoyl-L-aspartyl-L-valine] showed an IC50 [1] of 0.84 µM, an IC50 [2] of 0.29 µM and an inhibition at 25 µM [2] of 96%.

`CC(C)[C@H](NC(=O)[C@H](CC(=O)O)NC(=O)CCCCCCCCCn1ccnc1)C(=O)O` [10-(Imidazol-1-yl)decanoyl-L-aspartyl-L-valine] was tested, and the IC50 [1] was 20 µM, the IC50 [2] was > 25 µM and the inhibition at 25 µM [2] was 45%.

With `CCCC(C)CN(CC(=O)N[C@@H](CC(=O)O)C(=O)N[C@H](C(=O)O)C(C)C)C(=O)CCCCCNC(=N)N` (stereo partly drawn) [6-Guanidinohexanoyl-N-(2-methylpentyl)glycine-L-aspartic acid-L-valine] the IC50 [1] was > 200 µM, the IC50 [2] was 10.5 µM and the inhibition at 25 µM [2] was 86%.

With `CCCC[C@H](NC(=O)[C@H](CC(=O)O)NC(=O)CCCCCCCCNC(=N)N)C(=O)N[C@@H](CCCNC(=N)N)C(=O)O` [9-Guanidinononanoyl-L-aspartyl-L-norleucyl-L-arginine] the IC50 [1] was 0.21 µM, the IC50 [2] was 0.3 µM and the inhibition at 25 µM [2] was 95%.

With `CC(C)[C@H](NC(=O)[C@H](CC(=O)O)NC(=O)CNC(=O)[C@@H](N)CCCCN)C(=O)O` [L-Lysylglycyl-L-aspartyl-L-valine] (H-KGDV-OH) the IC50 [1] was 60 µM, the IC50 [2] was > 25 µM and the inhibition at 25 µM [2] was 8%.

`CC(C)[C@H](NC(=O)[C@H](CC(=O)O)NC(=O)CCCCCCCCN)C(=O)O` [9-aminononanoyl-L-aspartyl-L-valine] showed an IC50 [1] of 30 µM, an IC50 [2] of 19.1 µM and an inhibition at 25 µM [2] of 10.1%.

Compound `CCN(CC(=O)N[C@@H](CC(=O)O)C(=O)N[C@H](C(=O)O)C(C)C)C(=O)CCCCCCn1ccnc1` [7-(Imidazol-1-yl)heptanoyl-N-(ethyl)glycyl-L-aspartyl-L-valine] has an IC50 [1] of 1.3 µM, an IC50 [2] of 10.8 µM and an inhibition at 25 µM [2] of 82%.

Compound `CCc1nccn1CCCCCC(=O)N(C)CC(=O)N[C@@H](CC(=O)O)C(=O)N[C@H](C(=O)O)C(C)C` [6-(2-Ethylimidazol-1-yl)hexanoyl-sarcosyl-L-aspartyl-L-valine] has an IC50 [1] of 0.313 µM, an IC50 [2] of 4.9 µM and an inhibition at 25 µM [2] of 89%.

With `CC(C)[C@@H](C(=O)O)N(C)C(=O)[C@H](CC(=O)O)NC(=O)CNC(=O)[C@@H](N)CCCNC(=N)N` [L-arginylglycyl-L-aspartyl-L-(N-methyl)-valine] (H-RGD[NMeV]-OH) the inhibition at 50 µg/mL [1] was < 50%, the IC50 [2] was 160 µM and the inhibition at 100 µM [2] was 30%.

For `CC[C@H](C)[C@H](NC(=O)[C@H](CCCNC(=N)N)NC(=O)[C@H](CC(=O)O)NC(=O)CCCCCCCCNC(=N)N)C(=O)O` [9-Guanidinononanoyl-L-aspartyl-arginyl-isoleucine], the IC50 [1] was 1.2 µM, the IC50 [2] was 2.4 µM and the inhibition at 25 µM [2] was 93%.

Work on `CC(C)[C@H](NC(=O)[C@H](CC(=O)O)NC(=O)CN(C)C(=O)CCCCCCCN)C(=O)O` [8-Aminooctanoyl-sarcosyl-L-aspartyl-L-valine] (H-[Aoc][Sar]DV-OH) yielded an IC50 [1] of 0.23 µM, an IC50 [2] of 2.6 µM and an inhibition at 25 µM [2] of 96%.

For `CC(C)[C@H](NC(=O)[C@H](CC(=O)O)NC(=O)CN(C(=O)CCCCCNC(=N)N)C1CCCC1)C(=O)O` [6-Guanidinohexanoyl-N-cyclopentylglycine-L-aspartyl-L-valine], the IC50 [1] was 0.88 µM, the IC50 [2] was 5.7 µM and the inhibition at 25 µM [2] was 76%.

For `Cc1nccn1CCCCCCCCC(=O)N[C@@H](CC(=O)O)C(=O)N[C@H](C(=O)O)C(C)C`, the inhibition at 25 µM [2] was 74%.

For `CC(C)[C@H](NC(=O)[C@H](CC(=O)O)NC(=O)CCCCNC(=N)N)C(=O)O` [5-guanidinovaleroyl-L-aspartyl-L-valine], the inhibition at 25 µM [2] was 28%.

Compound `CC(C)[C@H](NC(=O)[C@H](CC(=O)O)NC(=O)CCCCCCCCNC(=N)N)C(=O)N[C@@H](CCCNC(=N)N)C(=O)O` [9-Guanidinononanoyl-L-aspartyl-L-valine-L-arginine] has an IC50 [2] of 0.22 µM and an inhibition at 25 µM [2] of 98%.

Compound `COC(=O)[C@H](CCCNC(=N)N)NC(=O)[C@H](CC(=O)O)NC(=O)CCCCCCCCNC(=N)N` [9-Guanidinononanoyl-L-aspartyl-L-arginine methylester] has an IC50 [2] of 1.7 µM and an inhibition at 25 µM [2] of 91%.

Work on `CCC(C)C[C@H](NC(=O)[C@H](CC(=O)O)NC(=O)CCCCCCCCNC(=N)N)C(=O)N[C@@H](CCCNC(=N)N)C(=O)O` (stereo partly drawn) [9-Guanidinononanoyl-L-aspartyl-homo-L-isoleucyl-L-arginine] yielded an inhibition at 25 µM [2] of 94%.

With `COC(=O)[C@](CCCNC(=N)N)(CC(C)C)NC(=O)[C@H](CC(=O)O)NC(=O)CCCCCCCCNC(=N)N` [9-Guanidinononanoyl-L-aspartyl-(S)-α-isobutyl-arginine methylester] the IC50 [2] was > 25 µM and the inhibition at 25 µM [2] was 0%.

With `CC(C)C[C@@H](CCC(=O)N[C@@H](CCCNC(=N)N)C(=O)O)NC(=O)[C@H](CC(=O)O)NC(=O)CCCCCCCCNC(=N)N` [N-[N-(9-Guanidinononanoyl-L-aspartyl)-(R)-4-amino-4-isobutylbutyryl]-L-arginine] the IC50 [1] was 2.1 µM.

With `N=C(N)NCCCCCCCC(=O)NCC(=O)NCC(=O)O` [8-Guanidinooctanoyl-glycyl-glycine] the inhibition at 25 µM [2] was 12%.

For `CCCCOC(=O)[C@@H](NC(=O)[C@H](CC(=O)O)NC(=O)CN(C)C(=O)CCCCCNC(=N)N)C(C)C` [6-Guanidinohexanoyl-sarcosyl-L-aspartyl-L-valine-butylester], the IC50 [2] was 4.5 µM and the inhibition at 25 µM [2] was 90%.

Work on `CC(C)[C@H](NC(=O)[C@@H](N)CCCNC(=O)[C@@H](N)CCCNC(=N)N)C(=O)O` [N-δ-(L-arginyl)-L-ornithyl-L-valine] (H-[Orn](Arg)-Val-OH) yielded an inhibition at 100 µM [2] of 20%.
